Literature values in patent publication US20070178051A1, “STERILIZED NANOPARTICULATE GLUCOCORTICOSTEROID FORMULATIONS” (Elan Pharma International, Ltd., priority 2006, published 2007).

solubility in chloroform (chloroform)	solubility in ethanol (ethanol)	solubility in heptane (heptane)	solubility in water	Compound
freely soluble	sparingly soluble	practically insoluble	practically insoluble	CCCC1O[C@@H]2C[C@H]3C4CCC5=CC(=O)C=CC5(C)[C@H]4[C@@H](O)CC3(C)C2(C(=O)CO)O1 (mixture of isomers) [Budesonide, (RS)-11,16,17,21-Tetrahydroxy-pregna-1,4-diene-3,20-dione cyclic 16,17-acetal with butraldehyde]
–	–	–	practically insoluble	CCC(=O)O[C@]1(C(=O)SCF)[C@H](C)C[C@H]2[C@@H]3C[C@H](F)C4=CC(=O)C=C[C@]4(C)[C@@]3(F)[C@@H](O)C[C@@]21C [Fluticasone propionate, S-(fluoromethyl) 6a,9-difluoro-11b, 17-dihydroxy-16a-methyl-3-oxoandrosta-1,4-diene-17b-carbothioate, 17-propionate]
